Data published in patent US20100292320A1, “BENZOFURAN ANILIDE HISTONE DEACETYLASE INHIBITORS” (Gilead Colorado, Inc., priority 2007, published 2010).

How the values were obtained:
HDAC 1 [1] = biological target: T1, HDAC 1 (Homo sapiens, UniProt Q13547); assay: HDAC 1 inhibition assay, fluorophore/quencher peptide substrate, 3-hour preincubation; type: biochemical; conditions: about 3 hours preincubation of enzyme/compound mix at room temperature; read-out: HDAC 1 inhibitory activity (IC50 [μM]) 3-hour preincubation
Experimental: (§1) The second assay is similar to the first assay described above, except that preincubation is carried out for about 3 hours after the enzyme is introduced. The test compound was suspended in, and titrated in DMSO. It was then spotted into a 384-well test plate. The enzyme, HDAC 1 or 6, was diluted in the same assay buffer as used in the previous assay and added to the pre-spotted compound. The enzyme/compound mix was incubated at room temperature for about 3 hours. The peptide substrate containing a fluorophore/quencher pair was diluted in the assay buffer and added to the compound/enzyme mix initiating the reaction. The reaction incubated at room temperature for 45 minutes. A concentrated developer solution was diluted in the assay buffer, and added to the reaction. The reaction was incubated at room temperature for about 15 minutes and relative fluorescence was read on an instrument reader.

HDAC 6 [2] = biological target: T2, HDAC 6 (Homo sapiens, UniProt Q9UBN7); assay: HDAC 6 inhibition assay, fluorophore/quencher peptide substrate, no preincubation; type: biochemical; conditions: no preincubation of enzyme and compound; read-out: HDAC 6 inhibitory activity (IC50 [μM]) No preincubation
T2 sequence (Q9UBN7 1-1215): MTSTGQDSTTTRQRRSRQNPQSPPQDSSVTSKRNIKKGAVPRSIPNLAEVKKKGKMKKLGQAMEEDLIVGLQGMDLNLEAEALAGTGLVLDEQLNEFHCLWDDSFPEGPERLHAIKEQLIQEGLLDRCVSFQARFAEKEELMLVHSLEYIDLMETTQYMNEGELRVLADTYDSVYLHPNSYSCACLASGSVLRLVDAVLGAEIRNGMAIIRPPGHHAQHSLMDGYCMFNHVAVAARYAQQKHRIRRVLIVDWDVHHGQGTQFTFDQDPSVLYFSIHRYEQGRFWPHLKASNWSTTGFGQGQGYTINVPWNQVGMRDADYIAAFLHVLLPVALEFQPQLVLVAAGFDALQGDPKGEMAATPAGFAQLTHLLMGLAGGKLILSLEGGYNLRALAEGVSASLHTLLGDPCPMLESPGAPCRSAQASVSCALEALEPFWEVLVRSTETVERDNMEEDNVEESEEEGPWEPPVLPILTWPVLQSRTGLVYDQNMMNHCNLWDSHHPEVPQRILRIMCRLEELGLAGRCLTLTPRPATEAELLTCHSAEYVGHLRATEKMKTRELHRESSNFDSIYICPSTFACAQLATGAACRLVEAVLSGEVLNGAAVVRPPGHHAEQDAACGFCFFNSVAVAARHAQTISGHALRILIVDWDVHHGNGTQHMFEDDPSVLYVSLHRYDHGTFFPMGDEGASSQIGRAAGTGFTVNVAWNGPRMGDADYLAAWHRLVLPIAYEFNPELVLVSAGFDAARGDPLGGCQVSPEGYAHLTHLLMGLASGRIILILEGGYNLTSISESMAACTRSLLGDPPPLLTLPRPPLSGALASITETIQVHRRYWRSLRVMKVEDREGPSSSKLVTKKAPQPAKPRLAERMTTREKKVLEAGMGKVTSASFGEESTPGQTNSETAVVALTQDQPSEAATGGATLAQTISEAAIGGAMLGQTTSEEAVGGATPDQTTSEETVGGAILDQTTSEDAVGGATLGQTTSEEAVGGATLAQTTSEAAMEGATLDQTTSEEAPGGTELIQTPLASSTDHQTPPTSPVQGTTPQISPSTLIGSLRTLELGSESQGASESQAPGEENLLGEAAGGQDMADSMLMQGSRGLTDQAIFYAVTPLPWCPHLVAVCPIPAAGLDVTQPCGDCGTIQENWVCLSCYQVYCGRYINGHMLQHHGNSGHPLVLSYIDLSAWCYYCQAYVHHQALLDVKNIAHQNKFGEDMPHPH
Experimental: (§2) HDAC inhibitory activity of the compound of Example 1 was measured by two types of assays in which HDAC 1 and 6 were used as a target molecule. The first assay was carried out without preincubation after addition of the enzyme. The test compound was suspended in and titrated in DMSO. It was then spotted into a 384-well test plate. The enzyme, HDAC 1 or 6, was diluted in assay buffer containing 25 mM Tris-HCl (pH 8.0), 137 mM NaCl, 2.7 mM KCl, and 0.01% Tween-20 and added to the pre-spotted compound. The peptide substrate containing a fluorophore/quencher pair was diluted in the same assay buffer and added to the compound/enzyme mix initiating the reaction. The reaction incubated at room temperature for about 45 minutes. A concentrated developer solution was diluted in the assay buffer, and added to the reaction. The reaction was incubated at room temperature for about 15 minutes and relative fluorescence was read on an instrument reader.

HDAC 6 [3] = biological target: T2, HDAC 6; assay: HDAC 6 inhibition assay, fluorophore/quencher peptide substrate, 3-hour preincubation; type: biochemical; conditions: about 3 hours preincubation of enzyme/compound mix at room temperature; read-out: HDAC 6 inhibitory activity (IC50 [μM]) 3-hour preincubation
Experimental: as §1

HDAC 1 [4] = biological target: T1, HDAC 1; assay: HDAC 1 inhibition assay, fluorophore/quencher peptide substrate, no preincubation; type: biochemical; conditions: no preincubation of enzyme and compound; read-out: HDAC 1 inhibitory activity (IC50 [μM]) No preincubation
Experimental: as §2

T1 sequence (Q13547 whole entry, species assumed): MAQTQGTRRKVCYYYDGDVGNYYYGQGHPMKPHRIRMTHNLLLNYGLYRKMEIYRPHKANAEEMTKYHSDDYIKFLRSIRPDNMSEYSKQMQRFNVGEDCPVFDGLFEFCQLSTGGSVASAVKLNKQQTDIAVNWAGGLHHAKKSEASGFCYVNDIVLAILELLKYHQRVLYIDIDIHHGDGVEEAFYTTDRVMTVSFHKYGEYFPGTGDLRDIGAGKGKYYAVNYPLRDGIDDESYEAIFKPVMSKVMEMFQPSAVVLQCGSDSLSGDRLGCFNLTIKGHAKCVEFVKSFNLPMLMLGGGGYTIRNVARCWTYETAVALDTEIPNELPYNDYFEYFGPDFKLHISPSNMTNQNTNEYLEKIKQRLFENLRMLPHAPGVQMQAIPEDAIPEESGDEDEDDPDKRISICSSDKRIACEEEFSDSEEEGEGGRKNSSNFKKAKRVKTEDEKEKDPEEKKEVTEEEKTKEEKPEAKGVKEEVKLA

IC50 (HDAC 1 [1]): 0.0033 µM
IC50 (HDAC 6 [2]): > 50 µM
IC50 (HDAC 6 [3]): > 50 µM
IC50 (HDAC 1 [4]): 0.03 µM
melting point: 205.1 °C
Compound: CN(C)Cc1c(C(=O)NCCOc2ccc(C(=O)Nc3ccccc3N)cc2)oc2ccccc12 [Example 1, N-(2-aminophenyl)-4-[2-(3-dimethylaminomethylbenzofuran-2-ylcarbonylamino)-ethoxy]-benzamide]
